Results published in US11028090B2 (Dong Wha Pharm. Co., Ltd., priority 2017, dated 2021).
Where two headings read alike, the source gives them in different places.

Molecular target: BRD4 (BD1+BD2) bromodomain (Homo sapiens (Human), UniProt O60885)
Test: BRD4 binding inhibition (AlphaScreen, GST-BRD4 vs tetraacetylated histone H4 peptide)
Description: A mixture comprising 100 nM GST-BRD4 (BD1+BD2) and 100 nM biotinylated acetyl-histone H4 (Lys5,8,12,16) peptide was prepared in assay buffer (50 mM HEPES pH 7.4; 25 mM NaCl; 0.05% Tween 20; 0.1% bovine serum albumin (BSA); 10 mM dithiothreitol (DTT)). After adding 6 μl of the mixture to the diluent, 6 μl of the pre-mixed AlphaLISA Glutathione Acceptor Beads and AlphaScreen Streptavidin Donor Beads (PerkinElmer, 10 μg/ml in assay buffer, respectively) was added thereto. The samples were incubated in the dark at room temperature for 30 minutes (shaking at 300 rpm). Then, the signals were measured with PerkinElmer Envision HTS Multilabel Reader using an alpha screen protocol of PerkinElmer. Each plate contained the negative control in which biotinylated acetyl-histone H4 peptide and GST-BRD4 (BD1+BD2) were replaced by assay buffer. In the case of using the software GraphPad Prism for calculation, the negative control point was input as a low standard value. The positive control (probe molecule l-BET762 containing protein/peptide mixture) proceeded to pipetting.

[1] = GST-BRD4 (BD1+BD2) / biotinylated acetyl-histone H4 (Lys5,8,12,16) peptide, read-out: IC50, BRD4 binding inhibition
[2] = GST-BRD4 (BD1+BD2) vs biotinylated acetyl-histone H4 peptide, AlphaScreen, read-out: BRD4 IC50

| SMILES | IC50 [1] [µM] | IC50 [2] [µM] |
| --- | --- | --- |
| COCCOc1ccc2c(c1)nc(NCCCCNC(=O)N1CCOCC1)c1nnc(C)n12 [Example 425, morpholine-4-carboxylic acid-{4-[7-(2-methoxy-ethoxy)-1-methyl-[1,2,4]triazolo[4,3-a]quinoxaline-4-ylamino]-butyl}-amide] | ≤ 0.05 | 0.028 |
| Cc1nnc2c(NCCCCNC(=O)Nc3cccc(F)c3)nc3ccccc3n12 [Example 24, 1-(3-fluoro-phenyl)-3-[4-(1-methyl-[1,2,4]triazolo[4,3-a]quinoxaline-4-ylamino)-butyl]-urea] | – | 0.067 |
| COCCOc1ccc2c(c1)nc(NCCCCNC(=O)C(C)C)c1nnc(C)n12 [Example 376, {4-[7-(2-methoxy-ethoxy)-1-methyl-[1,2,4]triazolo[4,3-a]quinoxaline-4-ylamino]-butyl}-isobutyramide] | ≤ 0.05 | – |
| Cc1nnc2c(NCCCCNC(=O)OC(C)(C)C)nc3cc(C(=O)O)ccc3n12 [Example 200, 4-[(4-tert-butoxycarbamoylamino)-butylamino]-1-methyl-[1,2,4]triazolo[4,3-a]quinoxaline-7-carboxylic acid] | – | 0.071 |
| CCNC(=O)NCCCCNc1nc2cc(OC)c(OC)cc2n2c(C)nnc12 [Example 89, 1-[4-(7,8-dimethoxy-1-methyl-[1,2,4]triazolo[4,3-a]quinoxaline-4-ylamino)-butyl]-3-ethyl-urea] | ≤ 0.05 | 0.047 |
| COc1ccc2c(c1)nc(NCCCCNC(=O)OCC(C)C)c1nnc(C(C)C)n12 [Example 629, [4-(1-isopropyl-7-methoxy-[1,2,4]triazolo[4,3-a]quinoxaline-4-ylamino)-butyl]-carbamic acid isobutylester] | ≤ 0.05 | 0.016 |
| Cc1nnc2c(NCCCCCC(=O)NCC(C)C)nc3ccccc3n12 [Example 662, 6-(1-methyl-[1,2,4]triazolo[4,3-a]quinoxaline-4-ylamino)-hexanoic acid isobutylamide] | ≤ 0.05 | 0.039 |
| Cc1nnc2c(NCCCCNC(=O)OCc3ccccc3)nc3ccccc3n12 [Example 25, [4-(1-methyl-[1,2,4]triazolo[4,3-a]quinoxaline-4-ylamino)-butyl]-carbamic acid benzylester] | – | 0.055 |
| Cc1nnc2c(NCCCCNC(=O)[C@H](O)C(C)C)nc3ccccc3n12 [Example 9, 2-(R)-hydroxy-N-[4-(1-methyl-[1,2,4]triazolo[4,3-a]quinoxaline-4-ylamino)-butyl]-3-methyl-butyramide] | ≤ 0.05 | 0.04 |
| COCCOc1ccc2c(c1)nc(NCCCCNC(=O)SC(C)C)c1nnc(C)n12 [Example 428, {4-[7-(2-methoxy-ethoxy)-1-methyl-[1,2,4]triazolo[4,3-a]quinoxaline-4-ylamino]-butyl}-thiocarbamic acid-S-isopropylester] | ≤ 0.01 | 0.004 |
| Cc1nnc2c(NCCCCNC(=O)OC(C)(C)C)nc3cc(C(=O)c4ccccc4)ccc3n12 [Example 260, [4-(7-benzoyl-1-methyl-[1,2,4]triazolo[4,3-a]quinoxaline-4-ylamino)-butyl]-carbamic acid-tert-butylester] | – | 0.062 |
| Cc1nnc2c(NCCCCNC(=O)OC(C)(C)C)nc3ccc(N)cc3n12 [Example 542, [4-(8-amino-1-methyl-[1,2,4]triazolo[4,3-a]quinoxaline-4-ylamino)-butyl]-carbamic acid-tert-butylester] | – | 0.061 |
| COc1cc2nc(NCCCCNC(=O)Nc3ccccc3)c3nnc(C)n3c2cc1OC [Example 94] | – | 0.057 |
| COCCOc1ccc2c(c1)nc(NCCCCNC(=O)c1cccnc1)c1nnc(C)n12 [Example 417, N-{4-[7-(2-methoxy-ethoxy)-1-methyl-[1,2,4]triazolo[4,3-a]quinoxaline-4-ylamino]-butyl}-nicotinamide] | – | 0.06 |
| COCCOc1ccc2c(c1)nc(NCCCCN)c1nnc(C)n12 [Example 364, N^1-[7-(2-methoxy-ethoxy)-1-methyl-[1,2,4]triazolo[4,3-a]quinoxaline-4-yl]-butane-1,4-diamine ditrifluoroacetic acid] | – | 0.098 |
| COCCOc1ccc2c(c1)nc(NCCCCNC(=O)Nc1ccccc1)c1nnc(C)n12 [Example 427, 3-{4-[7-(2-methoxy-ethoxy)-1-methyl-[1,2,4]triazolo[4,3-a]quinoxaline-4-ylamino]-butyl}-1-phenyl-urea] | ≤ 0.05 | 0.017 |

| SMILES | IC50 [1] [µM] | IC50 [2] [µM] |
| --- | --- | --- |
| COCCOc1ccc2c(c1)nc(NCCCCNC(=O)OC(C)(C)C)c1nnc(C)n12 [Example 363, {4-[7-(2-methoxy-ethoxy)-1-methyl-[1,2,4]triazolo[4,3-a]quinoxaline-4-ylamino]-butyl}-carbamic acid-tert-butylester] | ≤ 0.05 | 0.016 |
| Cc1nnc2c(NCCCCNC(=O)CC(C)C)nc3cc(N4CCSCC4)ccc3n12 [Example 523, 3-methyl-N-[4-(1-methyl-7-thiomorpholine-4-yl-[1,2,4]triazolo[4,3-a]quinoxaline-4-ylamino)-butyl]-butyramide] | – | 0.054 |
| Cc1nnc2c(NCCCCNC(=O)NC(C)(C)C)nc3ccc(F)cc3n12 [Example 52, 1-tert-butyl-3-[4-(8-fluoro-1-methyl-[1,2,4]triazolo[4,3-a]quinoxaline-4-ylamino)-butyl]-urea] | – | 0.07 |
| CCOC(=O)CC(=O)NCCCCNc1nc2cc(OC)ccc2n2c(C)nnc12 [Example 305, N-[4-(7-methoxy-1-methyl-[1,2,4]triazolo[4,3-a]quinoxaline-4-ylamino)-butyl]-malonamic acid ethylester] | ≤ 0.05 | 0.041 |
| COc1ccc2c(c1)nc(NCCCCNC(=O)[C@H](Cc1ccc(O)cc1)NC(=O)OC(C)(C)C)c1nnc(C)n12 [Example 325, (S)-{2-(4-hydroxy-phenyl)-1-[4-(7-methoxy-1-methyl-[1,2,4]triazolo[4,3-a]quinoxaline-4-ylamino)-butylcarbamoyl]-ethyl}-carbamic acid-tert-butylester] | – | 0.071 |
| COc1ccc2c(c1)nc(NCCCCNC(=O)OC(C)C)c1nnc(C(F)(F)F)n12 [Example 589, [4-(7-methoxy-1-trifluoromethyl-[1,2,4]triazolo[4,3-a]quinoxaline-4-ylamino)-butyl]-carbamic acid isopropylester] | ≤ 0.05 | 0.046 |
| Cc1nnc2c(NCCCCC(=O)NC(C)C)nc3ccccc3n12 [Example 659, 5-(1-methyl-[1,2,4]triazolo[4,3-a]quinoxaline-4-ylamino)-pentanoic acid isopropylamide] | – | 0.075 |
| COc1cc(C(F)(F)F)cc2c1nc(NCCCCNC(=O)CC(C)C)c1nnc(C)n12 [Example 145, N-[4-(6-methoxy-1-methyl-8-trifluoromethyl-[1,2,4]triazolo[4,3-a]quinoxaline-4-ylamino)-butyl]-3-methyl-butyramide] | ≤ 0.05 | 0.047 |
| COc1cc2nc(NCCCCNC(=O)CC(C)C)c3nnc(C(F)(F)F)n3c2cc1OC [Example 593, N-[4-(7,8-dimethoxy-1-trifluoromethyl-[1,2,4]triazolo[4,3-a]quinoxaline-4-ylamino)-butyl]-3-methyl-butyramide] | – | 0.092 |
| CC(=O)Nc1ccc2nc(NCCCCNC(=O)c3ccccc3)c3nnc(C)n3c2c1 [Example 548, N-[4-(8-acetamino-1-methyl-[1,2,4]triazolo[4,3-a]quinoxaline-4-ylamino)-butyl]-benzamide] | ≤ 0.05 | 0.045 |
| Cc1nnc2c(NCCCCNC(=O)OC(C)(C)C)nc3ccc(C(N)=O)cc3n12 [Example 533, [4-(8-carbamoyl-1-methyl-[1,2,4]triazolo[4,3-a]quinoxaline-4-ylamino)-butyl]-carbamic acid-tert-butylester] | – | 0.067 |
| Cc1noc(C)c1-c1ccc2nc(NCCCCNC(=O)[C@@H](O)C(C)C)c3nnc(C)n3c2c1 [Example 582, N-{4-[8-(3,5-dimethyl-isoxazol-4-yl)-1-methyl-[1,2,4]triazolo[4,3-a]quinoxaline-4-ylamino]-butyl}-2-(S)-hydroxy-3-methyl-butyramide] | ≤ 0.01 | 0.01 |
| COc1cc2nc(NCCCCNC(=O)c3ccccc3Cl)c3nnc(C)n3c2cc1C(F)(F)F [Example 481, 2-chloro-N-[4-(7-methoxy-1-methyl-8-trifluoromethyl-[1,2,4]triazolo[4,3-a]quinoxaline-4-ylamino)-butyl]-benzamide] | – | 0.051 |
| CC(=O)Nc1ccc2nc(NCCCCNC(=O)OC(C)(C)C)c3nnc(C)n3c2c1 [Example 546, [4-(8-acetamino-1-methyl-[1,2,4]triazolo[4,3-a]quinoxaline-4-ylamino)-butyl]-carbamic acid-tert-butylester] | ≤ 0.05 | – |
| COCCOc1ccc2c(c1)nc(NCCCCNC(=O)[C@@H](N)C(C)C)c1nnc(C)n12 (stereo in doubt) [Example 397, 2-amino-N-{4-[7-(2-methoxy-ethoxy)-1-methyl-[1,2,4]triazolo[4,3-a]quinoxaline-4-ylamino]-butyl}-3-methyl-butyramide] | ≤ 0.05 | 0.029 |
| CC(=O)Nc1ccc2nc(NCCCCNC(=O)C(C)(C)C)c3nnc(C)n3c2c1 [Example 547, N-[4-(8-acetamino-1-methyl-[1,2,4]triazolo[4,3-a]quinoxaline-4-ylamino)-butyl]-2,2-dimethyl-propionamide] | ≤ 0.05 | – |
